Laboratory results as given in patent publication US10905683B2, “Compositions and uses of amidine derivatives” (BIOCRYST PHARMACEUTICALS, INC., priority 2014, dated 2021).
≈ marks a conversion by molar mass, not a printed value.

Legend:
[1] = Concentration achieved in formulations and excipient mixtures; assay type: physicochemical; conditions: in the (oral) pharmaceutical compositions described
Method: In initial formulation work for the amidine compounds described herein, in particular 3-[2-(4-carbamimidoyl-phenylcarbamoyl)-5-methoxy-4-vinyl-phenyl]-6-(cyclopropylmethyl-carbamoyl)-pyridine-2-carboxylic acid, extensive studies were carried out to identify a suitable mixture of excipients to produce the oral formulation described herein.
Specifically, a variety of approaches were taken to develop suitable oral formulations of 3-[2-(4-carbamimidoyl-phenylcarbamyl)-5-methoxy-4-vinyl-phenyl]-6-(cyclopropylmethyl-carbamoyl)-pyridine-2-carboxylic acid. The approaches taken included use of a variety of hydrophilic polymers, including α-cyclodextrin and a polyanionic 3-cyclodextrin derivative with a sodium sulfonate salt separated from the lipophilic cavity by a butyl ether or sulfobutylether spacer group in combination with a variety of co-solvents. In addition, the compound was evaluated in formulations created by a number of different technologies (such as dry blends, nanosuspensions, solid dispersion and emulsions) using a variety of approaches.

[2] = Polymorphic conversion of Form A under relative humidity; assay type: physicochemical; conditions: RH 43%, 75% and 100%, room temperature
Text: In another embodiment, pharmaceutical compositions of Form A, in particular the oral pharmaceutical compositions described herein, when administered to a subject provide for increased bioavailability of the compound as compared to amorphous 3-[2-(4-carbamimidoyl-phenylcarbamoyl)-5-methoxy-4-vinylphenyl]-6-(cyclopropylmethyl-carbamoyl)-pyridine-2-carboxylic acid and salts thereof and other crystalline forms. In another embodiment, pharmaceutical compositions of Form A, in particular the oral pharmaceutical compositions described herein, when administered to a subject for treating a condition, is sufficient to affect such treatment. In another embodiment, pharmaceutical compositions of Form A, in particular the oral pharmaceutical compositions described herein, when administered to a subject for treating a condition, is sufficient to affect such treatment when dosed 1 to 3 times per day or less (such as 1 to 2 times). In another embodiment, pharmaceutical compositions of Form A, in particular the oral pharmaceutical compositions described wherein when administered to a subject provide for a therapeutically effective amount of the compound of at least 10 ng/ml, at least 15 ng/ml or at least 25 ng/ml in the blood of the subject for a period of at least from two hours to four hours after administration to a subject. […]

[3] = Aqueous solubility assay in buffer and simulated gastric/intestinal fluids; conditions: 37 °C, thermodynamic from solid, Observed Solubility, Target 100 μM, 24 hours
Method: The target concentration in each solution was 100 μM. […] The aqueous solutions were added (1 mL) to the dried samples and mixed at 400 rpm at 37° C. on an orbital plate shaker. […] Samples were prepared in triplicate. Testosterone and verapamil were used as reference compounds.

[4] = octanol-PBS pH 7.4 partition coefficient (log D7.4) assay; assay type: physicochemical; conditions: octanol/0.01 M phosphate buffer pH 7.4, 24 hours, LC/MS/MS
Method: A 1 μL volume of a 1 mM stock solution of the compound in dimethyl sulfoxide (DMSO) was added to 500 μL 0.01 M phosphate buffer pH 7.4 (saturated with octanol) and 500 μL of octanol (saturated with 0.01 M phosphate buffer). […] Samples were prepared in triplicate.

For `C=Cc1cc(C(=O)Nc2ccc(C(=N)N)cc2)c(-c2ccc(C(=O)NCC3CC3)nc2C(=O)O)cc1OC.Cl` [Form A, 3-[2-(4-Carbamimidoylphenylcarbamoyl)-5-methoxy-4-vinylphenyl]-6-(cyclopropylmethylcarbamoyl)pyridine-2-carboxylic acid hydrochloride], the concentration solubilized [1] was “greater than 140 mg/ml” and the “conversion to other polymorphic forms” value [2] was “not observed”.

`C[C@]12CC[C@H]3[C@@H](CCC4=CC(=O)CC[C@@]43C)[C@@H]1CC[C@@H]2O` [Testosterone, reference compound] gave a solubility at 24 h ([3]; fassgf or other biorelevant, Fasted-State SGF) of 43 µM (≈ 12.4 µg/mL), a solubility at 24 h ([3]; fassgf or other biorelevant, Fed-State SGF) of 27 µM (≈ 7.79 µg/mL) and a solubility at 24 h ([3]; fassif, Fasted-State SIF) of 35 µM (≈ 10.1 µg/mL). For the same compound, the solubility at 24 h ([3]; fessif, Fed-State SIF) was 36 µM (≈ 10.4 µg/mL) and the solubility at 24 h ([3]; pH 7.4, aqueous buffer, 0.1M phosphate buffer pH 7.4, 37° C.) was 42 µM (≈ 12.1 µg/mL).

For `C[C@@H]1C[C@H]2[C@@H]3CCC4=CC(=O)C=C[C@]4(C)[C@@]3(F)[C@@H](O)C[C@]2(C)[C@@]1(O)C(=O)CO` [Dexamethasone, reference compound], the logD at 24 h [4] was 1.5.
